Experimental data published in patent US12459916B2, “Substituted indazoles useful for treatment and prevention of allergic and/or inflammatory diseases in animals” (Bayer Pharma Aktiengesellschaft, priority 2016, dated 2025).
Where two headings read alike, the source gives them in different places.

How the values were obtained:
[1] = tested on: secretion of TNF-α in THP-1 cells; assay: TNF-α secretion in THP-1 cells; type: cell-based; conditions: Homo sapiens, LPS 0.05 μg/ml, 17 h, read-out: IC50 with respect to the secretion of TNF-α in THP-1 cells
Description: This test is suited to test substances for their ability to inhibit secretion of TNF-α (tumour necrosis factor alpha) in THP-1 cells (human monocytic acute leukaemia cell line). TNF-α is a cytokine involved in inflammatory processes. In this test, TNF-α secretion is triggered by incubation with bacterial lipopolysaccharide (LPS).
The cells were incubated at room temperature for 15 min. 2-2.5 μl of 0.1 μg/ml LPS (Sigma, Escherichia coli 055:B5, Cat. No. L5418) dissolved in cell culture medium (final concentration 0.05 μg/ml) were then dispensed into each well. As neutral control, cells were treated with 0.05 μg/ml LPS and 1% DMSO and, as inhibitor control, with 1% DMSO only.
The amount of TNF-α was determined using the TNF-alpha HTRF Detection Kit (Cisbio, Cat. No. 62TNFPEB/C). To this end, 2 μl of the detection solution in each case, consisting of anti-TNF-α-XL665 conjugate and anti-TNF-α-cryptate conjugate dissolved in the reconstitution buffer in accordance with the manufacturer's instructions, were added for the HTRF (Homogeneous Time-Resolved Fluorescence) test. After the addition, the mixture was incubated either at room temperature for 3 h or at 4° C. overnight.
The activity of the substances is expressed as the ratio between neutral and inhibitor control in percent. The IC50 values were calculated using a 4-parameter fit.

canine IRAK4 = canine IRAK4 (Canis lupus familiaris, UniProt A0A8I3S726); assay: Canine IRAK4 kinase assay (TR-FRET); type: biochemical
Description: The IRAK4-inhibitory activity of the present compounds on canine IRAK4 was measured in the Irak4 TR-FRET assay (TR-FRET=Time Resolved Fluorescence Resonance Energy Transfer) described hereinafter.
Recombinant fusion protein from N-terminal HIS (Poly-histidine) and canine Irak4, expressed in baculovirus-infected insect cells (Hi5, BTI-TN-5B1-4, cell line purchased from Invitrogen, catalogue No. B855-02) and purified via affinity chromatography, was used as enzyme. The substrate used for the kinase reaction was the biotinylated peptide biotin-Ahx-[…]
50 nl of the respective solution were pipetted into a black low-volume 384-well microtitre plate (Greiner Bio-One, Frickenhausen, Germany), 2 μl of a solution of Irak4 in assay buffer [50 mM HEPES pH 7.5, 5 mM MgCl2, 1.0 mM dithiothreitol, 30 μM activated sodium orthovanadate, 0.1% (w/v) of bovine gamma-globulin (BGG) 0.04% (v/v) nonidet-P40 (Sigma)] were added and the mixture was incubated for 15 min to allow prebinding of the substances to the enzyme prior to the kinase reaction. […] The concentration of the Irak4 was adjusted to the respective activity of the enzyme and set such that the assay was carried out in the linear range. Typical concentrations were in the order of about 0.1 nM.
The resulting mixture was incubated at 22° C. for 1 h to allow formation of a complex of the biotinylated phosphorylated substrate and the detection reagents. The amount of the phosphorylated substrate was then evaluated by measuring the resonance energy transfer from europium chelate-labelled anti-mouse-IgG antibody to streptavidin-XL665. […] The IC50 values were calculated by a 4-parameter fit.

[2] = IC50 in the IRAK4 canine kinase assay, values from two experiments, 1 mM ATP
[3] = recombinant canine IRAK4 enzyme, read-out: IC50 for the inhibition of canine IRAK4

Chain of canine IRAK4 (A0A8I3S726 1-460): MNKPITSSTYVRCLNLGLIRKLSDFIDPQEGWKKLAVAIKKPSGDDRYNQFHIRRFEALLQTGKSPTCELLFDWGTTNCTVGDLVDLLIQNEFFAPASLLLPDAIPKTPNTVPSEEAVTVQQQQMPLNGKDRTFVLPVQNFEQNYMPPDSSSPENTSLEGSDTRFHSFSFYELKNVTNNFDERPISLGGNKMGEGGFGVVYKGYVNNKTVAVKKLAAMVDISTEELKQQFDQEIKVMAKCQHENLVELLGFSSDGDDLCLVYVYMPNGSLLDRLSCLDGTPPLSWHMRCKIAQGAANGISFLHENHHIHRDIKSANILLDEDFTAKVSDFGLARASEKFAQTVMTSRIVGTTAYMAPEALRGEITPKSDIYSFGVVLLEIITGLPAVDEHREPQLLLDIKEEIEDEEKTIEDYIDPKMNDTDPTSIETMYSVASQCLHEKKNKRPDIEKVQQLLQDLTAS

| Compound | IC50 [1] [nM] | IC50 (canine IRAK4; [2]) [nM] | IC50 (canine IRAK4; [3]) [nM] |
| --- | --- | --- | --- |
| CC(C)(O)CCn1cc2cc(NC(=O)c3cccc(C(F)F)n3)c(C(C)(C)O)cc2n1 [Example 13, 6-(Difluoromethyl)-N-[2-(3-hydroxy-3-methylbutyl)-6-(2-hydroxypropan-2-yl)-2H-indazol-5-yl]pyridine-2-carboxamide] | 100 | 2.68 | 2.2 |
| Cc1nc(C(=O)Nc2cc3cn(CCC(C)(C)O)nc3cc2C(C)(C)O)ccc1F [Example 19, 5-Fluoro-N-[2-(3-hydroxy-3-methylbutyl)-6-(2-hydroxypropan-2-yl)-2H-indazol-5-yl]-6-methylpyridine-2-carboxamide] | 100 | 6.75 | 7.6 |
